Laboratory results reported in patent US6737383B1, “Herbicidal oxadiazolidines” (priority 1999, dated 2004).

How the values were obtained:
blackgrass = assay: Test B pre/postemergence blackgrass; format: in vivo, Alopecurus myosuroides
Summary of the method: (§1)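 Response is a visual 0-to-10 score relative to untreated plants, where 0 means no effect and 10 means complete control, taken twelve to sixteen days after application. Treatments went onto soil at planting and onto foliage of 1- to 4-leaf plants, using a surfactant-containing non-phytotoxic solvent.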

purple nutsedge = assay: Test B pre/postemergence purple nutsedge; format: in vivo, Cyperus rotundus
Summary of the method: as §1

rape = assay: Test B pre/postemergence rape; format: in vivo, Brassica napus
Summary of the method: as §1

duck salad = assay: Test B flood test duck salad; format: in vivo, Heteranthera limosa
Summary of the method: (§2)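 Each value is a visual injury score relative to controls, with 10 meaning complete control and 0 no effect. Evaluation took place twelve to sixteen days after the 2-leaf-stage plants were treated and kept in the greenhouse.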

giant foxtail = assay: Test B pre/postemergence giant foxtail; format: in vivo, Setaria faberii
Summary of the method: as §1

surinam grass = assay: Test B pre/postemergence surinam grass; format: in vivo, Brachiaria decumbens
Summary of the method: as §1

bamyardgrass = assay: Test B flood test barnyardgrass; format: in vivo, Echinochloa crus-galli
Summary of the method: as §2

cocklebur = assay: Test B pre/postemergence cocklebur; format: in vivo, Xanthium strumarium
Summary of the method: as §1

pigweed = assay: Test B pre/postemergence pigweed; format: in vivo, Amaranthus retroflexus
Summary of the method: as §1

wheat = assay: Test B pre/postemergence wheat; format: in vivo, Triticum aestivum
Summary of the method: as §1

smallflower flatsedge = assay: Test B flood test smallflower flatsedge; format: in vivo, Cyperus difformis
Summary of the method: as §2

crabgrass = assay: Test B pre/postemergence crabgrass; format: in vivo, Digitaria sanguinalis
Summary of the method: as §1

soybean = assay: Test B pre/postemergence soybean; format: in vivo, Glycine max
Summary of the method: as §1

rice = assay: Test B flood test rice; format: in vivo, Oryza sativa
Summary of the method: as §2

sugar beet = assay: Test B pre/postemergence sugar beet; format: in vivo, Beta vulgaris
Summary of the method: as §1

corn = assay: Test B pre/postemergence corn; format: in vivo, Zea mays
Summary of the method: as §1

[1] = Postemergence, Rate 125 g/ha, scale of 0 to 10 where 0 is no effect and 10 is complete control
[2] = Preemergence, Rate 62 g/ha, scale of 0 to 10 where 0 is no effect and 10 is complete control
[3] = Preemergence, Rate 125 g/ha, 0 is no effect, 10 is complete control
[4] = Preemergence, Rate 250 g/ha, scale 0 to 10, 0 is no effect, 10 is complete control
[5] = Preemergence, Rate 500 g/ha, scale 0 to 10 (0 no effect, 10 complete control)
[6] = Rate 62 g/ha, Postemergence, scale of 0 to 10 where 0 is no effect and 10 is complete control
[7] = Rate 250 g/ha, Postemergence, scale 0 to 10, 0 is no effect, 10 is complete control
[8] = Rate 500 g/ha, Postemergence, scale 0 to 10
[9] = Rate 62 g/ha, headed Pre-emergence (flood test species), scale 0 to 10 (0 no effect, 10 complete control)
[10] = Rate 125 g/ha, Pre-emergence, flood test species, scale 0 to 10 where 0 is no effect and 10 is complete control
[11] = Rate 250 g/ha, Pre-emergence, flood-test species, scale 0 to 10, 0 is no effect, 10 is complete control
[12] = Rate 500 g/ha, headed Pre-emergence (flood test species), scale 0 to 10 (0 no effect, 10 complete control)

CC(C)N(Cc1ccccc1)C(=O)n1oc(=O)n(C(C)C)c1=O [Compound 165]
Blackgrass plant response rating (blackgrass; [1]): 3
Blackgrass plant response rating (blackgrass; [2]): 0
Blackgrass plant response rating (0 to 10 scale) (blackgrass; [3]): 3
Blackgrass plant response rating (blackgrass; [4]): 6
Blackgrass plant response rating (blackgrass; [5]): 8
Blackgrass plant response rating (blackgrass; [6]): 0
Plant response rating, Blackgrass (blackgrass; [7]): 7
Blackgrass plant response rating (blackgrass; [8]): 8
Nutsedge plant response rating (purple nutsedge; [1]): 0
Nutsedge plant response rating (purple nutsedge; [2]): 0
Nutsedge plant response rating (0 to 10 scale) (purple nutsedge; [3]): 0
Nutsedge plant response rating (purple nutsedge; [4]): 0
Nutsedge plant response rating (purple nutsedge; [5]): 0
Nutsedge plant response rating (purple nutsedge; [6]): 0
Plant response rating, Nutsedge (purple nutsedge; [7]): 0
Nutsedge plant response rating (purple nutsedge; [8]): 0
Rape plant response rating (rape; [1]): 0
Rape plant response rating (rape; [2]): 0
Rape plant response rating (0 to 10 scale) (rape; [3]): 0
Rape plant response rating (rape; [4]): 4
Rape plant response rating (rape; [5]): 10
Rape plant response rating (rape; [6]): 0
Plant response rating, Rape (rape; [7]): 0
Rape plant response rating (rape; [8]): 2
Ducksalad plant response rating (duck salad; [9]): 0
Ducksalad plant response rating (duck salad; [10]): 0
Ducksalad plant response rating (duck salad; [11]): 0
Plant response rating, Ducksalad (duck salad; [12]): 0
Giant foxtail plant response rating (giant foxtail; [1]): 1
Giant foxtail plant response rating (giant foxtail; [2]): 6
Giant foxtail plant response rating (0 to 10 scale) (giant foxtail; [3]): 7
Giant foxtail plant response rating (giant foxtail; [4]): 8
Giant foxtail plant response rating (giant foxtail; [5]): 9
Giant foxtail plant response rating (giant foxtail; [6]): 0
Plant response rating, Giant foxtail (giant foxtail; [7]): 5
Giant foxtail plant response rating (giant foxtail; [8]): 8
B. signalgrass plant response rating (surinam grass; [1]): 1
B. signalgrass plant response rating (surinam grass; [2]): 0
B. signalgrass plant response rating (0 to 10 scale) (surinam grass; [3]): 4
B. signalgrass plant response rating (surinam grass; [4]): 6
B. signalgrass plant response rating (surinam grass; [5]): 6
B. signalgrass plant response rating (surinam grass; [6]): 0
Plant response rating, B. signalgrass (surinam grass; [7]): 5
B. signalgrass plant response rating (surinam grass; Rate 500 g/ha, Postemergence, scale 0 to 10, 0 no effect, 10 complete control): 8
Barnyardgrass plant response rating (bamyardgrass; [9]): 0
Barnyardgrass plant response rating (bamyardgrass; [10]): 0
Barnyardgrass plant response rating (bamyardgrass; [11]): 0
Plant response rating, Barnyardgrass (bamyardgrass; [12]): 1
Cocklebur plant response rating (cocklebur; [1]): 0
Cocklebur plant response rating (cocklebur; [2]): 0
Cocklebur plant response rating (0 to 10 scale) (cocklebur; [3]): 0
Cocklebur plant response rating (cocklebur; [4]): 0
Cocklebur plant response rating (cocklebur; [5]): 0
Cocklebur plant response rating (cocklebur; [6]): 0
Plant response rating, Cocklebur (cocklebur; [7]): 0
Cocklebur plant response rating (cocklebur; [8]): 0
Redroot pigweed plant response rating (pigweed; [1]): 2
Redroot pigweed plant response rating (pigweed; [2]): 0
Redroot pigweed plant response rating (0 to 10 scale) (pigweed; [3]): 0
Redroot pigweed plant response rating (pigweed; [4]): 0
Redroot pigweed plant response rating (pigweed; [5]): 1
Redroot pigweed plant response rating (pigweed; [6]): 0
Plant response rating, Redroot pigweed (pigweed; [7]): 4
Redroot pigweed plant response rating (pigweed; [8]): 4
Wheat plant response rating (wheat; [2]): 0
Wheat plant response rating (0 to 10 scale) (wheat; [3]): 0
Wheat plant response rating (wheat; [4]): 0
Wheat plant response rating (wheat; [5]): 2
Plant response rating, Wheat (wheat; [7]): 2
Wheat plant response rating (wheat; [8]): 3
S. Flatsedge plant response rating (smallflower flatsedge; [9]): 0
S. Flatsedge plant response rating (smallflower flatsedge; [10]): 0
S. Flatsedge plant response rating (smallflower flatsedge; [11]): 0
S. Flatsedge plant response rating (smallflower flatsedge; Rate 500 g/ha, Pre-emergence, flood test species, scale 0 to 10 (0 no effect, 10 complete control)): 0
Crabgrass plant response rating (crabgrass; [1]): 4
Crabgrass plant response rating (crabgrass; [2]): 4
Crabgrass plant response rating (0 to 10 scale) (crabgrass; [3]): 7
Crabgrass plant response rating (crabgrass; [4]): 8
Crabgrass plant response rating (crabgrass; [5]): 8
Crabgrass plant response rating (crabgrass; [6]): 2
Plant response rating, Crabgrass (crabgrass; [7]): 9
Crabgrass plant response rating (crabgrass; [8]): 9
Soybean plant response rating (soybean; [1]): 4
Soybean plant response rating (soybean; [2]): 0
Soybean plant response rating (0 to 10 scale) (soybean; [3]): 0
Soybean plant response rating (soybean; [4]): 0
Soybean plant response rating (soybean; [5]): 0
Soybean plant response rating (soybean; [6]): 2
Plant response rating, Soybean (soybean; [7]): 6
Soybean plant response rating (soybean; [8]): 6
Rice plant response rating (rice; [9]): 0
Rice plant response rating (rice; [10]): 0
Rice plant response rating (rice; [11]): 0
Plant response rating, Rice (rice; [12]): 0
Sugarbeets plant response rating (sugar beet; [1]): 0
Sugarbeets plant response rating (sugar beet; [2]): 0
Sugarbeets plant response rating (0 to 10 scale) (sugar beet; [3]): 4
Sugarbeets plant response rating (sugar beet; [4]): 4
Sugarbeets plant response rating (sugar beet; [5]): 4
Sugarbeets plant response rating (sugar beet; [6]): 0
Plant response rating, Sugarbeets (sugar beet; [7]): 3
Sugarbeets plant response rating (sugar beet; [8]): 6
Corn plant response rating (corn; [1]): 0
Corn plant response rating (corn; [2]): 0
Corn plant response rating (0 to 10 scale) (corn; [3]): 0
Corn plant response rating (corn; [4]): 0
Corn plant response rating (corn; [5]): 0
Corn plant response rating (corn; [6]): 0
Plant response rating, Corn (corn; [7]): 3
Corn plant response rating (corn; [8]): 3
